Experimental findings from patent US9237747B2, “Herbicidal compositions comprising 4-amino-3-chloro-5-fluoro-6-(4-chloro-2-fluoro-3-methoxyphenyl) pyridine-2-carboxylic acid or a derivative thereof and insecticides” (priority 2013, dated 2016) are described below.

SMILES strings stand for the structures. Like-named read-outs stand apart in the source and are kept apart here.

The subject of one assay is IPOHE. The assay is classed as in vivo, Ipomoea hederacea. As for the experimental part:
(§1) Seeds or nutlets of the desired test plant species were planted in a soil matrix prepared by mixing a loam or sandy loam soil (e.g., 28.6 percent silt, 18.8 percent clay, and 52.6 percent sand, with a pH of about 5.8 and an organic matter content of about 1.8 percent) and calcareous grit in an 80 to 20 ratio. The soil matrix was contained in plastic pots with a volume of 1 quart and a surface area of 83.6 square centimeters (cm^2). […] The plants were grown for 8-22 days in a greenhouse with an approximate 14 hour (h) photoperiod which was maintained at about 29° C. during the day and 26° C. during the night. Nutrients (Peters Excel® 15-5-15 5-Ca 2-Mg and iron chelate) were applied in the irrigation solution as needed and water was added on a regular basis. Supplemental lighting was provided with overhead metal halide 1000-Watt lamps as necessary. The plants were employed for testing when they reached the first through fourth true leaf stage.
(§2) Treatments consisted of the acid or esters of 4-amino-3-chloro-6-(4-chloro-2-fluoro-3-methoxyphenyl)-5-fluoropyridine-2-carboxylic acid (Compound A), each formulated as an SC (suspension concentrate), and various insecticidal components alone and in combination. Forms of compound A were applied on an acid equivalent basis.
(§3) For treatments comprised of formulated compounds, measured amounts of compounds were placed individually in 25 mL glass vials and diluted in a volume of 1.25% volume per volume (v/v) Agri-Dex® crop oil concentrate to obtain 12× stock solutions. […] Application solutions were prepared by adding an appropriate amount of each stock solution (e.g., 1 mL) and diluted to the appropriate final concentrations with the addition of […] of an aqueous mixture of 1.25% (v/v) crop oil concentrate so that the final spray solutions contained 1.25+/−0.05% (v/v) crop oil concentrate.
(§4) As required, additional water and/or 97:3 v/v acetone/DMSO was added to individual application solutions so that the final acetone and DMSO concentrations of the application solutions being compared were 8.1% and 0.25%, respectively.
(§5) All stock solutions and applications solutions were visually inspected for compound compatibility prior to application. Spray solutions were applied to the plant material with an overhead Mandel track sprayer equipped with 8002E nozzles calibrated to deliver 187 L/ha over an application area of 0.503 square meters (m^2) at a spray height of 18 to 20 inches (46 to 50 cm) above average plant canopy height. Control plants were sprayed in the same manner with the solvent blank.
(§6) The treated plants and control plants were placed in a greenhouse as described above and watered by sub-irrigation to prevent wash-off of the test compounds. After approximately 3 weeks, the condition of the test plants as compared to that of the untreated plants was determined visually and scored on a scale of 0 to 100 percent where 0 corresponds to no injury or growth inhibition and 100 corresponds to complete kill.
(§7) Colby's equation was used to determine the herbicidal effects expected from the mixtures (Colby, S. R. Calculation of the synergistic and antagonistic response of herbicide combinations. Weeds 1967, 15, 20-22.).
(§8) The following equation was used to calculate the expected activity of mixtures containing two active ingredients, A and B: Expected=A+B−(A×B/100)

The subject of another assay is CYPIR. It is filed as in vivo, Cyperus iria.
Source text: (§9) Seeds or nutlets of the desired test plant species were planted in a soil matrix prepared by mixing a loam or sandy loam soil (e.g., 28.6 percent silt, 18.8 percent clay, and 52.6 percent sand, with a pH of about 5.8 and an organic matter content of about 1.8 percent) and calcareous grit in an 80 to 20 ratio. The soil matrix was contained in plastic pots with a volume of 1 quart and a surface area of 83.6 square centimeters (cm^2). When required to ensure good germination and healthy plants, a fungicide treatment and/or other chemical or physical treatment was applied. The plants were grown for 8-22 days in a greenhouse with an approximate 14 hour (h) photoperiod which was maintained at about 29° C. during the day and 26° C. during the night. Nutrients (Peters Excel® 15-5-15 5-Ca 2-Mg and iron chelate) were applied in the irrigation solution as needed and water was added on a regular basis. Supplemental lighting was provided with overhead metal halide 1000-Watt lamps as necessary. The plants were employed for testing when they reached the first through fourth true leaf stage.
as §2
(§10) Treatment requirements were calculated based upon the rates being tested, the concentration of active ingredient or acid equivalent in the formulation, and a 12 milliliter (mL) application volume at a rate of 187 liters per hectare (L/ha).
as §3, §4, §5, §6, §7, §8

In a further assay the test system is BRAPP. As to the kind of experiment: Postemergence foliar-applied weed control, direct-seeded rice (greenhouse). It is filed as in vivo, Brachiaria platyphylla.
Source text: as §9, §2, §10, §3, §4, §5, §6, §7, §8

Another assay relates to DIGSA. The assay is classed as in vivo, Digitaria sanguinalis. As for the experimental part:
as §1, §2, §3, §4, §5, §6, §7, §8

Another assay concerns LEFCH. As to the kind of experiment: whole plant or invertebrate. The assay is classed as in vivo, Leptochloa chinensis. As for the experimental part:
as §1, §2, §3, §4, §5, §6, §7, §8

The subject of another assay is CYPES. The assay is classed as in vivo, Cyperus esculentus. As for the experimental part: as §1, §2, §3, §4, §5, §6, §7, §8
The next assay deals with ECHCG. The assay is classed as in vivo, Echinochloa crus-galli. As for the experimental part:
as §1, §2, §3, §4, §5, §6, §7, §8

In the next assay the test system is LEFFA. As to the kind of experiment: Postemergence foliar-applied weed control, direct-seeded rice (greenhouse). It is filed as in vivo, Leptochloa fascicularis.
Source text: as §9, §2, §10, §3, §4, §5, §6, §7, §8

For another assay, the system named is ECHCO. Described as above. The assay is classed as in vivo, Echinochloa colonum. As for the experimental part:
as §1, §2, §3, §4, §5, §6, §7, §8

The subject of another assay is LEFPA. Described as above. The assay is classed as in vivo, Leptochloa panicoides.
Source text: as §9, §2, §10, §3, §4, §5, §6, §7, §8

Setting [1] is: Dinebra chinensis, post-emergence, 528 h, read-out: Visual Weed Control (%) - 22 DAA LEFCH Obs.

For the compound `COP(=O)(NC(C)=O)SC` (centres unmarked) [Acephate, O,S-dimethyl acetylphosphoramidothioate], the “Visual Weed Control (%) - 21 DAA IPOHE Obs” value in the assay on IPOHE (280 g ai/ha alone) is on record as 10%. Also, the “Visual Weed Control (%) - 21 DAA CYPIR Obs” value in the assay with CYPIR (140 g ai/ha alone), with CYPIR (280 g ai/ha alone) and with CYPIR (560 g ai/ha alone) was 0% in each case. The “Visual Weed Control (%) - 21 DAA BRAPP Obs” value with BRAPP (140 g ai/ha alone), in the assay with BRAPP (280 g ai/ha alone) and with BRAPP (560 g ai/ha alone) was 0% throughout.
Take `CNC(=O)Oc1cccc2ccccc12` [Carbaryl, 1-naphthalenyl N-methylcarbamate]: the “Visual Weed Control (%) - 20 DAA IPOHE Obs” value was found to be 0% in the assay with IPOHE (6 g ai/ha alone) and 10% in the assay on IPOHE (12 g ai/ha alone). In addition, the “Visual Weed Control (%) - 20 DAA CYPIR Obs” value with CYPIR (3 g ai/ha alone), in the assay on CYPIR (6 g ai/ha alone) and in the assay on CYPIR (12 g ai/ha alone) was 0% in each case. Further, the “Visual Weed Control (%) - 20 DAA DIGSA Obs” value in the assay with DIGSA (3 g ai/ha alone), with DIGSA (6 g ai/ha alone), with DIGSA (12 g ai/ha alone), with DIGSA (24 g ai/ha alone), with DIGSA (48 g ai/ha alone) and with DIGSA (96 g ai/ha alone) was 0% throughout. The “Visual Weed Control (%) - 20 DAA LEFCH Obs” value in the assay with LEFCH (3 g ai/ha alone), in the assay on LEFCH (6 g ai/ha alone) and in the assay on LEFCH (12 g ai/ha alone) was 0% throughout. For the same compound, the “Visual Weed Control (%) - 20 DAA CYPES Obs” value in the assay on CYPES (24 g ai/ha alone), in the assay on CYPES (48 g ai/ha alone) and in the assay on CYPES (96 g ai/ha alone) was 0% each time. For the same compound, the “Visual Weed Control (%) - 20 DAA ECHCG Obs” value with ECHCG (3 g ai/ha alone), with ECHCG (6 g ai/ha alone) and with ECHCG (12 g ai/ha alone) was 0% in each case. For the same compound, the “Visual Weed Control (%) - 20 DAA BRAPP Obs” value in the assay with BRAPP (3 g ai/ha alone), in the assay on BRAPP (6 g ai/ha alone) and with BRAPP (12 g ai/ha alone) was 0% in each case.
For `CNC(=O)Oc1cccc2c1OC(C)(C)C2` [Carbofuran, 2,3-dihydro-2,2-dimethylbenzofuran-7-yl methylcarbamate], in the assay on IPOHE (500 g ai/ha alone), the “Visual Weed Control (%) - 21 DAA IPOHE Obs” value was 0%. Also, the “Visual Weed Control (%) - 21 DAA LEFCH Obs” value with LEFCH (500 g ai/ha alone) is 0%. Moreover, the “Visual Weed Control (%) - 20 DAA CYPES Obs” value in the assay on CYPES (125 g ai/ha alone) and with CYPES (250 g ai/ha alone) was 0% in each case.
Turning to `CCOP(=S)(OCC)Oc1nc(Cl)c(Cl)cc1Cl` [Chlorpyrifos, O,O-diethyl O-3,5,6-trichloro-2-pyridyl phosphorothioate], the results for the “Visual Weed Control (%) - 20 DAA IPOHE Obs” value with IPOHE (180 g ai/ha alone), in the assay on IPOHE (360 g ai/ha alone) and in the assay with IPOHE (720 g ai/ha alone) were 10%, 10% and 0%, respectively. Further, the “Visual Weed Control (%) - 20 DAA DIGSA Obs” value in the assay on DIGSA (180 g ai/ha alone), in the assay with DIGSA (360 g ai/ha alone), in the assay with DIGSA (500 g ai/ha alone) and in the assay on DIGSA (720 g ai/ha alone) was 0% throughout. The “Visual Weed Control (%) - 22 DAA DIGSA Obs” value in the assay on DIGSA (180 g ai/ha alone), in the assay with DIGSA (360 g ai/ha alone) and in the assay with DIGSA (720 g ai/ha alone) was 0% throughout. The “Visual Weed Control (%) - 20 DAA LEFCH Obs” value with LEFCH (180 g ai/ha alone), in the assay on LEFCH (360 g ai/ha alone), with LEFCH (500 g ai/ha alone) and with LEFCH (720 g ai/ha alone) was 0% each time. The pest or weed control at 720 g/ha in the assay on LEFCH (Dinebra chinensis, post-emergence, 528 h, 720 g ai/ha alone, read-out: Visual Weed Control (%) - 22 DAA LEFCH Obs) came out at 5%. Further, the “Visual Weed Control (%) - 20 DAA ECHCG Obs” value in the assay with ECHCG (180 g ai/ha alone), with ECHCG (360 g ai/ha alone) and in the assay with ECHCG (720 g ai/ha alone) was 0% throughout. The “Visual Weed Control (%) - 22 DAA LEFFA Obs” value with LEFFA (180 g ai/ha alone), in the assay with LEFFA (360 g ai/ha alone) and in the assay with LEFFA (720 g ai/ha alone) was 0% each time. For the same compound, the “Visual Weed Control (%) - 20 DAA ECHCO Obs” value in the assay with ECHCO (180 g ai/ha alone), with ECHCO (360 g ai/ha alone) and with ECHCO (720 g ai/ha alone) was 0% in each case. Besides, the “Visual Weed Control (%) - 20 DAA BRAPP Obs” value in the assay on BRAPP (180 g ai/ha alone), with BRAPP (360 g ai/ha alone) and with BRAPP (720 g ai/ha alone) was 0% in each case.
Take `CCCCOCCOCCOCc1cc2c(cc1CCC)OCO2` [Piperonyl Butoxide, 5-[[2-(2-butoxyethoxy)ethoxy]methyl]-6-propyl-1,3-benzodioxole]: the “Visual Weed Control (%) - 22 DAA DIGSA Obs” value in the assay on DIGSA (in vivo) stood at 0%. In the assay with LEFCH (setting [1]), the pest or weed control at 140 g/ha was 0%. In addition, the pest or weed control at 280 g/ha in the assay with LEFCH (setting [1]) is 0%. Further, in the assay with LEFCH (setting [1]), the pest or weed control at 560 g/ha came out at 0%. Also, the “Visual Weed Control (%) - 22 DAA LEFPA Obs” value is given as 0% in the assay on LEFPA (140 g ai/ha alone), 5% with LEFPA (280 g ai/ha alone) and 0% with LEFPA (560 g ai/ha alone). Besides, the “Visual Weed Control (%) - 22 DAA LEFFA Obs” value in the assay with LEFFA (22 DAA, 140 g ai/ha alone) was 0%; in the assay with LEFFA (22 DAA, 280 g ai/ha alone), 5%; with LEFFA (22 DAA, 560 g ai/ha alone), 0%.
